From the supplement of paper PMC3937590

Tests used:
Assay in all cases: -log10 GI50 (growth inhibition 50%) (-log10(M)); higher = more potent growth inhibition
HCC1419 = tested on: HCC1419
Summary of the method: (§1)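 Breast cancer cell lines were exposed to each compound for 72 hours at nine doses in 1:5 serial dilution, in triplicate, with a luminescence read-out against a time-zero plate. A Gompertz curve was fitted to the dose-response data by nonlinear least squares. The value is minus log10 of GI50, the molar concentration giving the set level of growth inhibition. Values equal to the top dose carry a < qualifier.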

MCF10F = tested on: MCF10F
Summary of the method: as §1

HCC1954 = tested on: HCC1954
Summary of the method: as §1

SUM52PE = tested on: SUM52PE
Summary of the method: as §1

UACC893 = tested on: UACC893
Summary of the method: as §1

SUM149PT = tested on: SUM149PT
Summary of the method: as §1

UACC812 = tested on: UACC812
Summary of the method: as §1

HCC1428 = tested on: HCC1428
Summary of the method: as §1

MDAMB468 = tested on: MDAMB468
Summary of the method: as §1

BT474 = tested on: BT474
Summary of the method: as §1

MDAMB134VI = tested on: MDAMB134VI
Summary of the method: as §1

HCC1143 = tested on: HCC1143
Summary of the method: as §1

CAMA1 = tested on: CAMA1
Summary of the method: as §1

T47D = tested on: T47D
Summary of the method: as §1

SUM159PT = tested on: SUM159PT
Summary of the method: as §1

HCC38 = tested on: HCC38
Summary of the method: as §1

MCF10A = tested on: MCF10A
Summary of the method: as §1

MCF12A = tested on: MCF12A
Summary of the method: as §1

HCC2185 = tested on: HCC2185
Summary of the method: as §1

MCF7 = tested on: MCF7
Summary of the method: as §1

MDAMB453 = tested on: MDAMB453
Summary of the method: as §1

SUM1315MO2 = tested on: SUM1315MO2
Summary of the method: as §1

BT549 = tested on: BT549
Summary of the method: as §1

HCC70 = tested on: HCC70
Summary of the method: as §1

HCC1187 = tested on: HCC1187
Summary of the method: as §1

ZR751 = tested on: ZR751
Summary of the method: as §1

HCC1937 = tested on: HCC1937
Summary of the method: as §1

HBL100 = tested on: HBL100
Summary of the method: as §1

HCC1395 = tested on: HCC1395
Summary of the method: as §1

BT483 = tested on: BT483
Summary of the method: as §1

SUM185PE = tested on: SUM185PE
Summary of the method: as §1

AU565 = tested on: AU565
Summary of the method: as §1

ZR75B = tested on: ZR75B
Summary of the method: as §1

SKBR3 = tested on: SKBR3
Summary of the method: as §1

HCC202 = tested on: HCC202
Summary of the method: as §1

HCC1806 = tested on: HCC1806
Summary of the method: as §1

MDAMB436 = tested on: MDAMB436
Summary of the method: as §1

MDAMB157 = tested on: MDAMB157
Summary of the method: as §1

MDAMB231 = tested on: MDAMB231
Summary of the method: as §1

MDAMB175VII = tested on: MDAMB175VII
Summary of the method: as §1

LY2 = tested on: LY2
Summary of the method: as §1

SUM229PE = tested on: SUM229PE
Summary of the method: as §1

HS578T = tested on: HS578T
Summary of the method: as §1

HCC3153 = tested on: HCC3153
Summary of the method: as §1

MDAMB415 = tested on: MDAMB415
Summary of the method: as §1

600MPE = tested on: 600MPE
Summary of the method: as §1

HCC1569 = tested on: HCC1569
Summary of the method: as §1

MDAMB361 = tested on: MDAMB361
Summary of the method: as §1

S1 = tested on: S1
Summary of the method: as §1

BT20 = tested on: BT20
Summary of the method: as §1

184A1 = tested on: 184A1
Summary of the method: as §1

T47D_KBluc = tested on: T47D_KBluc
Summary of the method: as §1

MX1 = tested on: MX1
Summary of the method: as §1

SUM225CWN = tested on: SUM225CWN
Summary of the method: as §1

184B5 = tested on: 184B5
Summary of the method: as §1

## CCC1=C[C@@H]2CN(C1)Cc1c([nH]c3ccccc13)[C@@](C(=O)OC)(c1cc3c(cc1OC)N(C)[C@H]1[C@@](O)(C(=O)OC)[C@H](OC(C)=O)[C@]4(CC)C=CCN5CC[C@]31[C@@H]54)C2 [Vinorelbine]
HCC1419
  -log10 GI50: 6.45
MCF10F
  -log10 GI50: 7.75
HCC1954
  -log10 GI50: 6.24
SUM52PE
  -log10 GI50: 7.97
UACC893
  -log10 GI50: 7.96
SUM149PT
  -log10 GI50: 7.85
UACC812
  -log10 GI50: 7.13
HCC1428
  -log10 GI50: 5.66
MDAMB468
  -log10 GI50: 8.01
BT474
  -log10 GI50: 7.32
MDAMB134VI
  -log10 GI50: 7.95
HCC1143
  -log10 GI50: 6.49
CAMA1
  -log10 GI50: 7.88
T47D
  -log10 GI50: 5.34
SUM159PT
  -log10 GI50: 7.91
HCC38
  -log10 GI50: 7.94
MCF10A
  -log10 GI50: 7.43
MCF12A
  -log10 GI50: 7.91
HCC2185
  -log10 GI50: 5.23
MCF7
  -log10 GI50: 7.85
MDAMB453
  -log10 GI50: 8.8
SUM1315MO2
  -log10 GI50: 8.65
BT549
  -log10 GI50: 8.02
HCC70
  -log10 GI50: 7.66
HCC1187
  -log10 GI50: 7.64
ZR751
  -log10 GI50: 7.37
HCC1937
  -log10 GI50: 6.65
HBL100
  -log10 GI50: 8.02
HCC1395
  -log10 GI50: 8.45
BT483
  -log10 GI50: 8.14
SUM185PE
  -log10 GI50: 8.08
AU565
  -log10 GI50: 8.24
ZR75B
  -log10 GI50: 8.05
SKBR3
  -log10 GI50: 7.83
HCC202
  -log10 GI50: 7.89
HCC1806
  -log10 GI50: 7.97
MDAMB436
  -log10 GI50: 7.57
MDAMB157
  -log10 GI50: 7.89
MDAMB231
  -log10 GI50: 8.39
MDAMB175VII
  -log10 GI50: 7.41
LY2
  -log10 GI50: 7.88
SUM229PE
  -log10 GI50: 8.68
HS578T
  -log10 GI50: 7.99
HCC3153
  -log10 GI50: 7.29
MDAMB415
  -log10 GI50: 7.73
600MPE
  -log10 GI50: 5.97
HCC1569
  -log10 GI50: 6.42
MDAMB361
  -log10 GI50: 9
S1
  -log10 GI50: 8.34

## O=C(CCCCCCC(=O)Nc1ccccc1)NO [Vorinostat]
HCC1419
  -log10 GI50: 4.27
MCF10F
  -log10 GI50: 3.08
HCC1954
  -log10 GI50: 3.95
SUM52PE
  -log10 GI50: 4.73
SUM149PT
  -log10 GI50: 4.02
UACC812
  -log10 GI50: 4.37
HCC1428
  -log10 GI50: 4.42
BT20
  -log10 GI50: 3.74
BT474
  -log10 GI50: 4.27
MDAMB134VI
  -log10 GI50: 4.4
HCC1143
  -log10 GI50: 3.9
CAMA1
  -log10 GI50: 4.13
T47D
  -log10 GI50: 3.97
SUM159PT
  -log10 GI50: 3.92
184A1
  -log10 GI50: 3.87
T47D_KBluc
  -log10 GI50: 3.99
HCC38
  -log10 GI50: 4.47
MCF10A
  -log10 GI50: 3.68
MCF12A
  -log10 GI50: 3.77
HCC2185
  -log10 GI50: 4.28
MCF7
  -log10 GI50: 4.19
MDAMB453
  -log10 GI50: 4.49
SUM1315MO2
  -log10 GI50: 3.77
BT549
  -log10 GI50: 3.83
HCC70
  -log10 GI50: 4.46
HCC1187
  -log10 GI50: 4.79
ZR751
  -log10 GI50: 3.77
HCC1395
  -log10 GI50: 3.49
BT483
  -log10 GI50: 4.23
SUM185PE
  -log10 GI50: 4.42
MX1
  -log10 GI50: 4.06
AU565
  -log10 GI50: 4.08
ZR75B
  -log10 GI50: 4.02
SKBR3
  -log10 GI50: 4.32
HCC202
  -log10 GI50: 5.03
HCC1806
  -log10 GI50: 3.89
SUM225CWN
  -log10 GI50: 3.84
MDAMB157
  -log10 GI50: 4.01
MDAMB231
  -log10 GI50: 4.11
MDAMB175VII
  -log10 GI50: 4.29
LY2
  -log10 GI50: 3.86
SUM229PE
  -log10 GI50: 4.02
HS578T
  -log10 GI50: 3.53
HCC3153
  -log10 GI50: 3.77
MDAMB415
  -log10 GI50: 3.96
600MPE
  -log10 GI50: 4.18
HCC1569
  -log10 GI50: 3.98
MDAMB361
  -log10 GI50: 4.26
184B5
  -log10 GI50: 3.84
